Results published in ChEMBL document CHEMBL3872235, “Synthesis and biological evaluation of allylated mono-carbonyl analogues of curcumin (MACs) as anti-cancer agents for cholangiocarcinoma” (Bioorg Med Chem Lett, 2016).

Assays:
[1] = Cytotoxicity against RBEC assessed as cell survival at 20 uM after 24 hrs by MTT assay; format: toxicity; details: rat, RBEC cells; read-out: Survival
[2] = Drug degradation in phosphate buffer at pH 7.4 measured up to 25 mins by UV-Vis spectral analysis; format: physicochemical; details: for Stability: buffer, pH 7.4, 25 min
[3] = Cytotoxicity against RBEC assessed as decrease in cell viability after 24 hrs by MTT assay; format: toxicity; details: rat, RBEC cells
[4] = Decrease in Cdc2 expression in human QBC939 cells after 24 hrs by Western blot analysis; format: functional, cell-based
[5] = Decrease in Cdc2 expression in RBEC after 24 hrs by Western blot analysis; format: ADME; details: rat
[6] = Cytotoxicity against HUCCA cells assessed as decrease in cell viability after 24 hrs by MTT assay; format: functional, cell-based; details: Homo sapiens
[7] = Induction of apoptosis in HUCCA cells at 7.5 uM after 24 hrs by annexin V/propidium iodide staining based flow cytometry (reference value: 9.6%); format: functional, Homo sapiens
[8] = Induction of apoptosis in RBEC at 7.5 uM after 24 hrs by annexin V/propidium iodide staining based flow cytometry (reference value: 2.3%); details: rat
[9] = Induction of apoptosis in RBEC assessed as increase in Bax protein expression after 24 hrs by Western blot analysis; details: rat
QBC939 [10] = test: Induction of apoptosis in human QBC939 cells assessed as increase in Bax protein expression after 24 hrs by Western blot analysis; format: functional, cell-based
HUCCA [11] = test: Induction of apoptosis in HUCCA cells after 24 hrs by annexin V/propidium iodide staining based flow cytometry; format: functional, cell-based; details: Homo sapiens
[12] = Induction of apoptosis in human QBC939 cells at 5 uM after 24 hrs by annexin V/propidium iodide staining based flow cytometry (reference value: 2.21%); format: functional
[13] = Induction of apoptosis in RBEC at 5 uM after 24 hrs by annexin V/propidium iodide staining based flow cytometry (reference value: 2.3%); details: rat
[14] = Cytotoxicity against human QBC939 cells assessed as decrease in cell viability after 24 hrs by MTT assay; format: functional, cell-based; details: QBC939, 24 h
[15] = Cytotoxicity against human HL7702 cells assessed as decrease in cell viability after 24 hrs by MTT assay; format: functional, cell-based; details: L02, 24 h
HUCCA [16] = test: Induction of apoptosis in HUCCA cells assessed as decrease in Bcl-2 protein expression after 24 hrs by Western blot analysis; format: functional, cell-based; details: Homo sapiens
[17] = Increase in p53 expression in RBEC after 24 hrs by Western blot analysis; details: rat
QBC939 [18] = test: Induction of apoptosis in human QBC939 cells after 24 hrs by annexin V/propidium iodide staining based flow cytometry; format: functional, cell-based
[19] = Decrease in Cdc2 expression in HUCCA cells after 24 hrs by Western blot analysis; format: functional, cell-based; details: Homo sapiens
HUCCA [20] = test: Increase in p53 expression in HUCCA cells after 24 hrs by Western blot analysis; format: functional, cell-based; details: Homo sapiens
[21] = Cell cycle arrest in RBEC cells assessed as accumulation at G2/M phase after 24 hrs by flow cytometric analysis; format: ADME, cell-based; details: rat
[22] = Cell cycle arrest in human QBC939 cells assessed as accumulation at G2/M phase after 24 hrs by flow cytometric analysis; format: functional, cell-based
QBC939 [23] = test: Increase in p53 expression in human QBC939 cells after 24 hrs by Western blot analysis; format: functional, cell-based
HUCCA [24] = test: Induction of apoptosis in HUCCA cells assessed as increase in Bax protein expression after 24 hrs by Western blot analysis; format: functional, cell-based; details: Homo sapiens
[25] = Induction of apoptosis in human QBC939 cells at 7.5 uM after 24 hrs by annexin V/propidium iodide staining based flow cytometry (reference value: 2.21%); format: functional
[26] = Cytotoxicity against HIBEC assessed as decrease in cell viability after 24 hrs by MTT assay; format: toxicity; details: human, HIBEC cells
[27] = Cell cycle arrest in HUCCA cells assessed as accumulation at G2/M phase after 24 hrs by flow cytometric analysis; format: functional, cell-based; details: Homo sapiens
[28] = Induction of apoptosis in HUCCA cells at 5 uM after 24 hrs by annexin V/propidium iodide staining based flow cytometry (reference value: 9.6%); format: functional, Homo sapiens
QBC939 [29] = test: Induction of apoptosis in human QBC939 cells assessed as decrease in Bcl-2 protein expression after 24 hrs by Western blot analysis; format: functional, cell-based
[30] = Induction of apoptosis in HUCCA cells at 10 uM after 24 hrs by annexin V/propidium iodide staining based flow cytometry (reference value: 9.6%); format: functional, Homo sapiens
[31] = Induction of apoptosis in RBEC at 10 uM after 24 hrs by annexin V/propidium iodide staining based flow cytometry (reference value: 2.3%); details: rat
HUCCA [32] = test: Induction of apoptosis in HUCCA cells assessed as decrease in PARP cleavage after 24 hrs by Western blot analysis; format: functional, cell-based; details: Homo sapiens
[33] = Induction of apoptosis in RBEC after 24 hrs by annexin V/propidium iodide staining based flow cytometry; details: rat
[34] = Induction of apoptosis in human QBC939 cells at 10 uM after 24 hrs by annexin V/propidium iodide staining based flow cytometry (reference value: 2.21%); format: functional
[35] = Induction of apoptosis in RBEC assessed as decrease in Bcl-2 protein expression after 24 hrs by Western blot analysis; details: rat
[36] = Induction of apoptosis in human QBC939 cells at 20 uM after 24 hrs by annexin V/propidium iodide staining based flow cytometry (reference value: 2.21%); format: functional
[37] = Induction of apoptosis in HUCCA cells at 20 uM after 24 hrs by annexin V/propidium iodide staining based flow cytometry (reference value: 9.6%); format: functional, Homo sapiens
[38] = Increase in p53 expression in RBEC at 20 uM after 24 hrs by Western blot analysis; format: ADME; details: rat
[39] = Decrease in Cdc2 expression in RBEC at 20 uM after 24 hrs by Western blot analysis; details: rat
[40] = Cell cycle arrest in RBEC cells assessed as accumulation at G2/M phase at 20 uM after 24 hrs by flow cytometric analysis; format: cell-based; details: rat
[41] = Induction of apoptosis in RBEC at 20 uM after 24 hrs by annexin V/propidium iodide staining based flow cytometry (reference value: 2.3%); details: rat

Question: Which viability at 24 h, 20 µM [1] does the source give for C=CCc1cc(/C=C2\CCC/C(=C\c3ccc(O)c(CC=C)c3)C2=O)ccc1O here?
Answer: < 50%

Question: Which Stability [2] does the source give for C=CCc1cc(/C=C2\CC/C(=C\c3ccc(O)c(CC=C)c3)C2=O)ccc1O here?
Answer: Stable

Question: And the IC50 at 24 h [3]?
Answer: 10.7 µM

Question: With C=CCc1cc(/C=C2\CN(S(=O)(=O)CCC)C/C(=C\c3ccc(O)c(CC=C)c3)C2=O)ccc1O as the compound, how does the viability at 24 h, 20 µM [1] read?
Answer: < 50%

Question: With C=CCc1cc(/C=C2\CSC/C(=C\c3ccc(O)c(CC=C)c3)C2=O)ccc1O as the compound, how does the Activity [4] read?
Answer: Dose-dependent effect

Question: And the Activity [5]?
Answer: Dose-dependent effect

Question: And the IC50 [6]?
Answer: 8.7 µM

Question: And the Activity [7]?
Answer: 31.8%

Question: And the Activity [8]?
Answer: 13.9%

Question: And the viability at 24 h, 20 µM [1]?
Answer: < 50%

Question: What about the Activity [9] of the same compound?
Answer: Dose-dependent effect

Question: What about the Activity (QBC939 [10]) of the same compound?
Answer: Dose-dependent effect

Question: What about the Activity (HUCCA [11]) of the same compound?
Answer: Dose-dependent effect

Question: And the Activity [12]?
Answer: 7.6%

Question: What about the Activity [13] of the same compound?
Answer: 9.3%

Question: And the IC50 [14]?
Answer: 9.3 µM

Question: And the IC50 [15]?
Answer: 9.7 µM

Question: What about the Activity (HUCCA [16]) of the same compound?
Answer: Dose-dependent effect

Question: What about the Stability [2] of the same compound?
Answer: Stable

Question: What about the IC50 at 24 h [3] of the same compound?
Answer: 8.1 to 8.9 µM

Question: What about the Activity [17] of the same compound?
Answer: Dose-dependent effect

Question: What about the Activity (QBC939 [18]) of the same compound?
Answer: Dose-dependent effect

Question: And the Activity [19]?
Answer: Dose-dependent effect

Question: What about the Activity (HUCCA [20]) of the same compound?
Answer: Dose-dependent effect

Question: And the Activity [21]?
Answer: Dose-dependent effect

Question: What about the Activity [22] of the same compound?
Answer: Dose-dependent effect

Question: What about the Activity (QBC939 [23]) of the same compound?
Answer: Dose-dependent effect

Question: What about the Activity (HUCCA [24]) of the same compound?
Answer: Dose-dependent effect

Question: What about the Activity [25] of the same compound?
Answer: 15.8%

Question: What about the IC50 at 24 h [26] of the same compound?
Answer: 9.8 µM

Question: What about the Activity [27] of the same compound?
Answer: Dose-dependent effect

Question: What about the Activity [28] of the same compound?
Answer: 19.4%

Question: What about the Activity (QBC939 [29]) of the same compound?
Answer: Dose-dependent effect

Question: What about the Activity [30] of the same compound?
Answer: 41.6%

Question: What about the Activity [31] of the same compound?
Answer: 39.9%

Question: What about the Activity (HUCCA [32]) of the same compound?
Answer: Dose-dependent effect

Question: What about the Activity [33] of the same compound?
Answer: Dose-dependent effect

Question: And the Activity [34]?
Answer: 38.6%

Question: What about the Activity [35] of the same compound?
Answer: Dose-dependent effect

Question: Which viability at 24 h, 20 µM [1] does the source give for C=CCc1cc(/C=C2\CN(C(=O)c3ccccc3)C/C(=C\c3ccc(O)c(CC=C)c3)C2=O)ccc1O here?
Answer: < 50%

Question: Which viability at 24 h, 20 µM [1] does the source give for C=CCc1cc(/C=C2\CN(CCC)C/C(=C\c3cc(OC)c(OC)cc3OC)C2=O)ccc1O here?
Answer: < 50%

Question: With C=CCc1cc(/C=C2\CN(C3CC3)C/C(=C\c3ccc(OC(C)(C)C)cc3)C2=O)ccc1O as the compound, how does the viability at 24 h, 20 µM [1] read?
Answer: < 50%

Question: For C=CCc1cc(/C=C2\COC/C(=C\c3ccc(O)c(CC=C)c3)C2=O)ccc1O, which viability at 24 h, 20 µM [1] is on record?
Answer: < 50%

Question: What about the Stability [2] of the same compound?
Answer: Stable

Question: And the IC50 at 24 h [3]?
Answer: 15 µM

Question: For C=CCc1cc(/C=C2\CN(C(C)C)C/C(=C\c3ccc(O)c(CC=C)c3)C2=O)ccc1O, which viability at 24 h, 20 µM [1] is on record?
Answer: < 50%

Question: Which results are given for O=c1[nH]cc(F)c(=O)[nH]1 [FLUOROURACIL]?
Answer: IC50 [6]: 13.4 µM; IC50 [14]: 16.1 µM; IC50 at 24 h [3]: 19.3 µM

Question: With C=CCc1cc(/C=C2\CNC/C(=C\c3ccc(O)c(CC=C)c3)C2=O)ccc1O as the compound, how does the viability at 24 h, 20 µM [1] read?
Answer: < 50%

Question: Which results are given for C=CCc1cc(/C=C2\CN(C3CC3)C/C(=C\c3ccc(O)c(CC=C)c3)C2=O)ccc1O?
Answer: viability at 24 h, 20 µM [1]: < 50%; IC50 at 24 h [3]: 14.4 µM

Question: Which results are given for COc1cc(/C=C/C(=O)CC(=O)/C=C/c2ccc(O)c(OC)c2)ccc1O [CURCUMIN]?
Answer: Activity [36]: 18.5%; degraded at 25 min ([2]; phosphate buffer, pH 7.4, read-out: Drug degradation): 50%; Activity [37]: 21.7%; Activity [38]: Non-Toxic; Activity [39]: Non-Toxic; Activity [40]: Non-Toxic; Activity [41]: 27.6%
